According to patent US8378117B2 (priority 2005, dated 2013):

System: Male CD-1 mice
Test: Oil of mustard induced colitis model
Format: in vivo
Settings: Therapeutic Regimen, 5 mg/kg oral; 5 mg/kg
Text: In the distal colon, the oil of mustard colitis model is characterized by a discontinuous pattern of mucosal epithelial damage, submucosal edema, infiltration of inflammatory cells (including macrophages, neutrophils and lymphocytes) into the mucosa and submucosa, increased wet weight of the colon, shrinkage of the colon length, diarrhea and apparent inflammation (see, Kimball E. S., Palmer J. M., D'Andrea M. R., Homby P. J. and Wade P. R., Acute colitis induction by oil of mustard results in later development of an IBS-like accelerated upper GI transit in mice, Am. J Physiol. Gastrointest. Liver Physiol., 2005, 288: G 1266-1273).
Male CD-1 mice (Charles River Laboratories, Kingston, N.C.) (9-11 weeks old) and fresh oil of mustard (OM) (allyl isothiocyanate, 98% purity, Sigma-Aldrich St. Louis, Mo.) were used.
The mice (9 per treatment group) were briefly anesthetized with ketamine/xylasine (Sigma, St. Louis, Mo.) and a solution of 0.5% OM in 30% ethanol (50 μL) was administered intracolonically (to a depth of 4 cm) via syringe (equipped with a ball-tipped 22 G needle).
A test compound was orally administered one day prior to colitis induction for assessing a prophylactic regimen or one day post-induction for assessing a therapeutic regimen. A test compound was orally administered daily thereafter. Two days after OM administration, the last test compound dose was administered.
Three days after OM administration, the animals were sacrificed. The colons were resected, examined for signs of inflammation, weighed after removing fecal contents and the length from the aboral end of the cecum to the anus was measured. The fecal contents were examined for signs of diarrhea. The distal colon between the 1st and the 4th centimeter was removed and placed in 10% neutral buffered formalin for histological analysis.
The macroscopic observations of colon inflammation (a measure of colon damage), colon weight and length and stool consistency and appearance were assigned a score and used to evaluate colitis severity.
The four observation scores for each colon were combined, whereby a combined score of 0 represents a normal colon and a combined score of 15 represents a maximally affected colon. Statistical analyses were performed in Graphpad Prism 4.0 using ANOVA.
Histological analyses of tissues consisted of staining paraffin-embedded tissue sections with hematoxylin-eosin dye. The tissues were examined using light microscopy by an investigator who was blinded to the sample groups.
The microscopic observations of epithelial damage, cellular infiltration and damage or alteration of smooth muscle architecture (a measure of muscle damage) were assigned a score and used to evaluate colitis severity.
The scores for each colon were combined, whereby a combined score of 0 represents a normal colon and a combined score of 9 represents a maximally affected colon. Statistical analyses were performed in Graphpad Prism 4.0 using ANOVA.
The Macroscopic Score and Microscopic Score results for each treatment group in the prophylactic and therapeutic regimens were each combined into a mean score and expressed as % inhibition of colitis (% Inh). Test (#) represents the number of experiments at each dose level.

| SMILES | % Inh (Macro), % inhibition of colitis, macroscopic score |
| --- | --- |
| O=C(N[C@H](CO)c1ccccc1)c1n[nH]c2c1CCCCC2Cc1cccc(Cl)c1 (single isomer, unassigned) [Cpd 230, (8R*)-8-(3-chloro-benzyl)-1,4,5,6,7,8-hexahydro-cycloheptapyrazole-3-carboxylic acid [(1S)-2-hydroxy-1-phenyl-ethyl]-amide] | 25.9 ± 24.7% |
| O=C(N[C@H](CO)c1ccccc1)c1n[nH]c2c1CCCCC2Cc1cccc(Cl)c1 (single isomer, unassigned) [Cpd 231, (8S*)-8-(3-chloro-benzyl)-1,4,5,6,7,8-hexahydro-cycloheptapyrazole-3-carboxylic acid [(1S)-2-hydroxy-1-phenyl-ethyl]-amide] | −19 ± 20.7% |
